Patent US8101622B2, “Pyridopyrimidinone inhibitors of PI3Kα and mTOR” (Exelixis, Inc., priority 2008, dated 2012)
pIC50: −log10 of the molar value. Each block holds one compound with its values, some of them ahead of it.

Legend:
PI3Kα = PI3Kα (Homo sapiens, UniProt P42336); test: PI3K luciferase-coupled chemiluminescence assay (PI3Kα); assay type: biochemical; details: first value of cell 'P13K-α, β'; 1 μM ATP, 10 μM PIP2
Experimental: (§1) PI3K Luciferase-Coupled Chemiluminescence Assay Protocol
(§2) PI3Kα activity is measured as the percent of ATP consumed following the kinase reaction using luciferase-luciferin-coupled chemiluminescence. Reactions were conducted in 384-well white, medium binding microtiter plates (Greiner). Kinase reactions were initiated by combining test compounds, ATP, substrate (PIP2), and kinase in a 20 μL volume in a buffer solution. The standard PI3Kalpha assay buffer is composed 50 mM Tris, pH 7.5, 1 mM EGTA, 10 mM MgCl2, 1 mM DTT and 0.03% CHAPS. The standard assay concentrations for enzyme, ATP, and substrate are 1.5 nM, 1 μM, and 10 μM, respectively. The reaction mixture was incubated at ambient temperature for approximately 2 h. Following the kinase reaction, a 10 μL aliquot of luciferase-luciferin mix (Promega Kinase-Glo) was added and the chemiluminescence signal measured using a Victor2 plate reader (Perkin Elmer). Total ATP consumption was limited to 40-60% and IC50 values of control compounds correlate well with literature references. PI3Kα can be replaced with PI3Kβ, PI3Kδ, or PI3Kγ to determine the compound's activity for the other isoforms of PI3K.

PI3Kβ = PI3Kβ (Homo sapiens, UniProt P42338); test: PI3K luciferase-coupled chemiluminescence assay (PI3Kβ in place of PI3Kα); assay type: biochemical; details: second value of cell 'P13K-α, β'
Chain of PI3Kβ (P42338 whole entry, species assumed): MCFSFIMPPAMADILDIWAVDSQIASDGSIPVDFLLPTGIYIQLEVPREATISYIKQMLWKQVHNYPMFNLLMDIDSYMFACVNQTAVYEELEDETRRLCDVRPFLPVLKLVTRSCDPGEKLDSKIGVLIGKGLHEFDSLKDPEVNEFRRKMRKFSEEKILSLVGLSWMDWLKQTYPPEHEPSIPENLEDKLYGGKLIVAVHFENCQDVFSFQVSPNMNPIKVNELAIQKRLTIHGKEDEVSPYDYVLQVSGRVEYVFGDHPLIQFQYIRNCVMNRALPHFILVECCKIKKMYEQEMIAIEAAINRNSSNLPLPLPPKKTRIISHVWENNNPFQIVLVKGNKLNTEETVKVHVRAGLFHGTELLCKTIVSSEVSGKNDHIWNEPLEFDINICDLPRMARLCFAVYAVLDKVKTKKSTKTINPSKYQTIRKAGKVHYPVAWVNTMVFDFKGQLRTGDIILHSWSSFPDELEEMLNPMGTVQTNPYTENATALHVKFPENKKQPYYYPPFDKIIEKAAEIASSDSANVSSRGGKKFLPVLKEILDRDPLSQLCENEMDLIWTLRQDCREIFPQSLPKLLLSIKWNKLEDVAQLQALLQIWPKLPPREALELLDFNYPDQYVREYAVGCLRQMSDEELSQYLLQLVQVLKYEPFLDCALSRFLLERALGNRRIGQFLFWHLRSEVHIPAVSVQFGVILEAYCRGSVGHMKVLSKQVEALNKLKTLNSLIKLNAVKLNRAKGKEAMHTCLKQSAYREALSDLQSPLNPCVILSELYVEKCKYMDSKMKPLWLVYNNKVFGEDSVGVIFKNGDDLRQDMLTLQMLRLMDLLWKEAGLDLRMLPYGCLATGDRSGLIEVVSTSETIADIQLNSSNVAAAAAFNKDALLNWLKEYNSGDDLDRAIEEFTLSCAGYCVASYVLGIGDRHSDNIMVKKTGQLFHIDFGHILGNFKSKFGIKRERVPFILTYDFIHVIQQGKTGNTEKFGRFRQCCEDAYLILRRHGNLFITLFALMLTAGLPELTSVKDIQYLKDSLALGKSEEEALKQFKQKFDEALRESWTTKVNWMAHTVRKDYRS
Chain of PI3Kβ (P27986 whole entry partner, species assumed): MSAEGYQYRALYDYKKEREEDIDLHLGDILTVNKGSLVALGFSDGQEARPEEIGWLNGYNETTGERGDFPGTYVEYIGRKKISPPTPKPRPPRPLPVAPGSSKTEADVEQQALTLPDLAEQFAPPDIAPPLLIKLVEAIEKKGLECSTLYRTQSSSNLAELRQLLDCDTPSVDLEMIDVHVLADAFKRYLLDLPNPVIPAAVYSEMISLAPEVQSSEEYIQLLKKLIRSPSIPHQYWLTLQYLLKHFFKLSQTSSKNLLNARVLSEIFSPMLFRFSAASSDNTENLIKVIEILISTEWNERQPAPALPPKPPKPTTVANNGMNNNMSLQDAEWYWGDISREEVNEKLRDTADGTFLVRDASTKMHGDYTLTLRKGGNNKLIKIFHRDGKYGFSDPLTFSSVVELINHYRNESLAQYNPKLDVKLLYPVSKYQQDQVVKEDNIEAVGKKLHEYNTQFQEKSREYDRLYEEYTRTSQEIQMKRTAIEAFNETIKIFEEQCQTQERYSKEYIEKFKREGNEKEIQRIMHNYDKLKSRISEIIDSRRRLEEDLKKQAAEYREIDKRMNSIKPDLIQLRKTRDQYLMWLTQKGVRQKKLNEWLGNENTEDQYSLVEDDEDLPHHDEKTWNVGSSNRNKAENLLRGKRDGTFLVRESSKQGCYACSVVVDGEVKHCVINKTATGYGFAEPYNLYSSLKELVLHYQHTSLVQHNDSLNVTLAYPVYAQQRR
Experimental: as §1, §2

mTOR/GbL/Raptor (mTORC1) = mTOR/GbL/Raptor (mTORC1) (Homo sapiens, UniProt P42345); test: mTOR/GbL/Raptor (mTORC1) ELISA assay; assay type: biochemical; details: mTORC1, 10 μM ATP, 4E-BP1 substrate
Experimental: mTOR/GbL/Raptor (mTORC1) ELISA Assay
The measurement of mTORC1 enzyme activity was performed in an ELISA assay format following the phosphorylation of 4E-BP1 protein. All experiments were performed in the 384-well format. Generally, 0.5 μL DMSO containing varying concentrations of the test compound was mixed with 15 μL enzyme solution. Kinase reactions were initiated with the addition of 15 μL of substrates-containing solution. The assay conditions were as follows; 0.2 nM mTORC1, 10 μM ATP and 50 nM NHis-tagged 4E-BP1 in 20 mM Hepes, pH 7.2, 1 mM DTT, 50 mM NaCl, 10 mM MnCl2, 0.02 mg/mL BSA, 0.01% CHAPS, 50 mM ([…]. Following an incubation of 120 minutes at ambient temperature, 20 μL of the reaction volume was transferred to a Ni-Chelate-coated 384-well plate. The binding step of the 4E-BP1 protein proceeded for 60 minutes, followed by washing 4 times each with 50 μL of Tris-buffered saline solution (TBS). Anti-phospho-4E-BP1 rabbit-IgG (20 μL, 1:5000) in 5% BSA-TBST (0.2% Tween-20 in TBS) was added and further incubated for 60 minutes. Incubation with a secondary HRP-tagged anti-IgG was similarly performed after washing off the primary antibody (4 washes of 50 μL). Following the final wash step with TBST, 20 μL of SuperSignal ELISA Femto (Pierce Biotechnology) was added and the luminescence measured using an EnVision plate reader.

[1] = tested on: pS6 (S240/S244) PC-3 cell line; test: pS6 (S240/244) ELISA assay in PC-3 cells; assay type: cell-based, human; details: 3 h compound, ratio pS6 to total S6
Experimental: PC-3 and MCF-7 cells (both from ATCC) were seeded at 8×10^3 cells per well in 96-well plates (Corning, 3904) in DMEM (Cellgro) containing 10% FBS (Cellgro), 1% NEAA (Cellgro) and 1% penicillin-streptomycin (Cellgro). Two plates were prepared for cell fixation ELISA, one for pS6 (S240/244) and one for total S6. Cells were incubated at 37° C., 5% CO2 for 48 h, and the growth medium was replaced with serum-free DMEM. Serial dilutions of the test compound in 0.3% DMSO (vehicle) were added to the cells and incubated for 3 h. To fix the cells, medium was removed and 100 μL/well of 4% formaldehyde (Sigma Aldrich, F8775) in TBS (20 mM Tris, 500 mM NaCl) was added to each well at RT for 30 min. Cells were washed 3 times with 200 μL TBS containing 0.1% Tween20 (Bio-Rad, catalog #170-6351) (TBST), and quenched with 100 μL 0.6% H2O2 (VWR International, catalog #VW3742-1) in TBST for 30 min at RT. Plates were washed 3 times with 200 μL TBST and blocked with 100 μL 5% BSA (Jackson ImmunoResearch, 001-000-173) in TBST for 1 h at RT. Anti-pS6 (S240/244) antibody (Cell Signaling Technology, 2215) and anti-total-S6 antibody (Cell Signaling Technology, 2217) were diluted 1/500 in 5% BSA in TBST, and 50 μL of either primary antibody solution was added to one plate to detect pS6 or total S6. After incubation overnight at 4° C., plates were washed 4 times with 200 μL TBST. Goat anti-rabbit secondary antibody (Jackson ImmunoResearch, catalog #111-035-003) was diluted at 1/15000 in 5% BSA in TBST. 100 μL of antibody solution was added to each well and incubated for 1 h at RT. Plates were washed 3 times with 200 μL TBST and 2 times with 200 μL TBS. Chemiluminescent substrate (Super Signal Elisa Femto Chemiluminescent Substrate; Pierce, 37075) was prepared at RT. One-hundred μL of chemiluminescent substrate per well was added and then the plate was shaken for 1 min. Luminescence was read immediately on a Wallac plate reader. IC50 values were determined based on the ratio of pS6 to total S6 signal for compound treated wells, normalized to the DMSO-treated control wells.

MCF-7 cells = test: MCF-7 2 day BrdU cell proliferation assay; assay type: cell-based, human; details: MCF-7, 48 hr
Experimental: (§3) MCF-7 and PC-3 2 Day BrdU Cell Proliferation Assay
(§4) MCF-7 (ATCC) and PC-3 (ATCC) cells were seeded onto 96-well plates (Corning, #3904) in their growth medium, DMEM (Cellgro, #10-014-CV)+10% heat-inactivated FBS (Invitrogen)+1% Pen/Strep (Cellgro, #30-002-CI)+1% NEAA (Cellgro, #25-025-CI) at a seeding density of 15000 and 8000 cells/well, respectively. Cells were incubated overnight at 37° C., 5% CO2. Cells were then treated the next day with a serial dilution of compound in its growth medium (containing a final concentration of 0.3% DMSO). Triplicate wells were used for each compound concentration. The control wells received 0.3% DMSO in growth medium. The plates were incubated at 37° C., 5% CO2 for an additional 48 hr. Cells were labeled with BrdU (Roche, #10280879001, 20 μM) for 2-4 hr and then fixed with 70% EtOH+0.1 M NaOH for 30 min at RT. Anti-BrdU-Peroxidase (Roche, #11585860001, 1/2000 in PBS+1% BSA) conjugate was added to the cells, after which the plates were washed 3 times with 1×PBS. Chemiluminescent substrate solution (Pierce, #3707A/B) was added, and the plates were read for luminescence using the Wallac Victor plate reader for 0.1 sec. IC50 values were determined based on cell proliferation with compound treatment compared to the 0.3% DMSO vehicle control.

PC-3 cells = test: PC-3 2 day BrdU cell proliferation assay; assay type: cell-based, human
Experimental: as §3, §4

[2] = Mouse microsomal oxidation assay; assay type: in vitro ADME; details: 15 μM compound, 0.5 mg/mL microsomal protein, 1 mM NADPH, 37° C., 30 min; +/−10% equivalent to little or no oxidation
Experimental: Mouse Microsomal Oxidation Assay
Microsomal oxidation of test compounds in the presence of mouse liver microsomal fractions was conducted in 96-well microtiter plates. Liver microsomal preparations were purchased from BD Gentest (Cat #452701). Test compounds were incubated in duplicate at 37° C. for 30 min in the presence of liver microsomes and NADPH. Reaction mixtures (75 μL) contained a final concentration of 15 μM test compound, 0.15% DMSO, 0.5 mg/mL microsomal protein and 1 mM NADPH in 100 mM potassium phosphate, pH 7.4 buffer. Control incubations contained the full complement of enzyme and substrate but no NADPH added. All test-sets included reference CYP450 substrates to verify assay performance. Reactions were terminated by the addition of 150 μL acetonitrile containing 0.1% formic acid. The concentration of the test compound remaining was determined by LC/MS/MS analysis on Sciex API-3000 instrument. The % oxidation is determined by the change in peak integration for the test compound (+/−NADPH) relative to the peak integration of internal standard injected with the sample: % oxidation=[((Int. peakcompound, no NADPH/Int. peakstandard)−(Int. peakcompound, NADPH/Int. peakstandard))[…]] Chromatographic separation of analytes was achieved using a Phenomenex Synergi Hydro-RP column (Torrance, Calif.) and a mobile phase consisting of 0.1% formic acid in acetonitrile and 0.1% formic acid in water. A linear gradient from 2-98% acetonitrile was used to elute compounds from the HPLC column. The typical variation (ie, precision) observed in the measurements for a given sample (e.g., multiple injections of the same sample) is ca. 10%, and thus experimental values of +/−10% can be considered to be equivalent to little or no oxidation.

Chain of PI3Kα (P42336 whole entry): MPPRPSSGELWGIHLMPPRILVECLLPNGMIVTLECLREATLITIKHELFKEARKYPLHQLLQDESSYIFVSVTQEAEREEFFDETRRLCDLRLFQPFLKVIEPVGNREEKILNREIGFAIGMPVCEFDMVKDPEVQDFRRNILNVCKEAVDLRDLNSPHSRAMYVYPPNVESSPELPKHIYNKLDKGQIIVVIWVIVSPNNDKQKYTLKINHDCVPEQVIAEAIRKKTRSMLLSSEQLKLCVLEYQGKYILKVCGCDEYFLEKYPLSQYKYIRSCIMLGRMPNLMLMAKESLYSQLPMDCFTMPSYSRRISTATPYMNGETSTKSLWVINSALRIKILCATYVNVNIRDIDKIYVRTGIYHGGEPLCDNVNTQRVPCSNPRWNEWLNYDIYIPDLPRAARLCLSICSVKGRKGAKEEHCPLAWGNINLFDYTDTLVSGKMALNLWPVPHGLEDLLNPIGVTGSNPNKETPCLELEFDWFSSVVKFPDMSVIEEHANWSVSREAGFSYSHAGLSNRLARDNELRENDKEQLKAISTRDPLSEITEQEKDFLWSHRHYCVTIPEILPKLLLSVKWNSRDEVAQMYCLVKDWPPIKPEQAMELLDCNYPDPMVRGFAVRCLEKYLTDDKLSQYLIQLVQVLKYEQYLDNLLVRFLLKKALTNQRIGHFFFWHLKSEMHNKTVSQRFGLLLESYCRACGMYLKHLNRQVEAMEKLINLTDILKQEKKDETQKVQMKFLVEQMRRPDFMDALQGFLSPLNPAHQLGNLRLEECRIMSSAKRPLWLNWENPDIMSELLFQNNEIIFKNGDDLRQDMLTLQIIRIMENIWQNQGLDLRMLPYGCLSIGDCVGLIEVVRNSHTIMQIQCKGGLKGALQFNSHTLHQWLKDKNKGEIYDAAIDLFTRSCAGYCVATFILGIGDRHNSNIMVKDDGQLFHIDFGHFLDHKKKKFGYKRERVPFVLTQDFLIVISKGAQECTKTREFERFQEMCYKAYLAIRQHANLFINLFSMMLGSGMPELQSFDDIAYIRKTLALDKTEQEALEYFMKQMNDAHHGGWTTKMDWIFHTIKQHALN
Chain of PI3Kα (P27986 whole entry partner): as the sequence (P27986 whole entry partner, species assumed) above

Structure (SMILES): Cc1nc(N)nc2c1cc(-c1ccc(N)nc1)c(=O)n2C1CCCOC1 (centres unmarked) [listing 2 of 2 here]
- pIC50 ([1]; Homo sapiens, PC-3, 3 h): 7.59
- pIC50 (MCF-7 cells; Homo sapiens, MCF7, 48 h): 6.82
- pIC50 (PC-3 cells; Homo sapiens, PC-3, 48 h): 6.53
- Mouse Liver Microsome Oxidation (%) [2]: 6.6%

Structure (SMILES): Cc1nc(N)nc2c1cc(-c1ccc(N)nc1)c(=O)n2C1CCOC1 (centres unmarked) [listing 1 of 2 here]
- pIC50 ([1]; Homo sapiens, PC-3, 3 h): 7.44
- pIC50 (MCF-7 cells; Homo sapiens, MCF7, 48 h): 6.42
- pIC50 (PC-3 cells; Homo sapiens, PC-3, 48 h): 6.40
- Mouse Liver Microsome Oxidation (%) [2]: 1.7%

Structure (SMILES): Cc1nc(N)nc2c1cc(-c1ccc(N)nc1)c(=O)n2[C@H]1CCOC1
- pIC50 (PI3Kα): 7.81
- pIC50 (PI3Kβ): 7.78
- pIC50 (mTOR/GbL/Raptor (mTORC1)): 8.26

Structure (SMILES): Cc1nc(N)nc2c1cc(-c1ccc(N(C)C)nc1)c(=O)n2C1CCCOC1 (centres unmarked) [reference compound] [listing 1 of 2 here]
- pIC50 (PI3Kα): 7.87
- pIC50 (PI3Kβ): 6.69
- pIC50 (mTOR/GbL/Raptor (mTORC1)): 8.21
- pIC50 [1]: 7.02
- pIC50 (MCF-7 cells): 6.82
- pIC50 (PC-3 cells; PC-3, 48 hr): 6.13
- Mouse Liver Microsome Oxidation (%) [2]: 31.2%

Structure (SMILES): Cc1nc(N)nc2c1cc(-c1ccc(N(C)C)nc1)c(=O)n2C1CCCOC1 (centres unmarked) [reference compound] [listing 2 of 2 here]
- pIC50 ([1]; Homo sapiens, PC-3, 3 h): 7.14
- pIC50 (MCF-7 cells; Homo sapiens, MCF7, 48 h): 6.61
- pIC50 (PC-3 cells; Homo sapiens, PC-3, 48 h): 5.88
- Mouse Liver Microsome Oxidation (%) [2]: 41.3%

Further lines, results first:

- pIC50 (PI3Kα): 8.26
- pIC50 (PI3Kβ): 7.28
- pIC50 (mTOR/GbL/Raptor (mTORC1)): 8.59
- pIC50 [1]: 7.80
- pIC50 (MCF-7 cells): 7.01
- pIC50 (PC-3 cells; PC-3, 48 hr): 6.82
- Mouse Liver Microsome Oxidation (%) [2]: 15.2%
Structure (SMILES): Cc1nc(N)nc2c1cc(-c1ccc(N)nc1)c(=O)n2C1CCCOC1 (centres unmarked) [listing 1 of 2 here]

- pIC50 (PI3Kα): 8.14
- pIC50 (PI3Kβ): 7.22
- pIC50 (mTOR/GbL/Raptor (mTORC1)): 8.52
Structure (SMILES): Cc1nc(N)nc2c1cc(-c1ccc(N)nc1)c(=O)n2[C@H]1CCCOC1

- pIC50 (PI3Kα): 8.05
- pIC50 (PI3Kβ): 7.70
- pIC50 (mTOR/GbL/Raptor (mTORC1)): 8.49
- pIC50 ([1]; Homo sapiens, PC-3, 3 h): 7.60
- pIC50 (MCF-7 cells; Homo sapiens, MCF7, 48 h): 6.82
- pIC50 (PC-3 cells; Homo sapiens, PC-3, 48 h): 6.55
- Mouse Liver Microsome Oxidation (%) [2]: −7.8%
Structure (SMILES): Cc1nc(N)nc2c1cc(-c1ccc(N)nc1)c(=O)n2C1CCOCC1

- pIC50 (PI3Kα): > 8.04
- pIC50 (PI3Kβ): 7.47
- pIC50 (mTOR/GbL/Raptor (mTORC1)): 8.60
- pIC50 [1]: 7.73
- pIC50 (MCF-7 cells): 6.66
- pIC50 (PC-3 cells; PC-3, 48 hr): 6.30
- Mouse Liver Microsome Oxidation (%) [2]: −8.2%
Structure (SMILES): Cc1nc(N)nc2c1cc(-c1ccc(N)nc1)c(=O)n2C1CCOC1 (centres unmarked) [listing 2 of 2 here]

- pIC50 (PI3Kα): 8.04
- pIC50 (PI3Kβ): 6.33
- pIC50 (mTOR/GbL/Raptor (mTORC1)): 8.24
Structure (SMILES): Cc1nc(N)nc2c1cc(-c1ccc(N(C)C)nc1)c(=O)n2[C@H]1CCCOC1 [reference compound]

- pIC50 (PI3Kα): 8.55
- pIC50 (PI3Kβ): 8.17
- pIC50 (mTOR/GbL/Raptor (mTORC1)): 8.17
- pIC50 ([1]; Homo sapiens, PC-3, 3 h): 7.39
- pIC50 (MCF-7 cells; Homo sapiens, MCF7, 48 h): 6.66
- pIC50 (PC-3 cells; Homo sapiens, PC-3, 48 h): 6.33
- Mouse Liver Microsome Oxidation (%) [2]: 45.6%
Structure (SMILES): COc1ccc(-c2cc3c(C)nc(N)nc3n(C3CCCOC3)c2=O)cn1 (centres unmarked) [reference compound]
